# Laboratory results from patent US9951039B2, “Pyrimidines for treatment of bacterial infections” (The Hong Kong Polytechnic University, priority 2016, dated 2018).
# Experiments:
# [1] = system: FtsZ GFP fusion stain of B. subtilis 168; assay: Z-ring visualization, GFP tagged FtsZ in B. subtilis 168; assay type: cell-based; details: 6 μM test compound, 4 hours
# Description: Procedure: A single colony of FtsZ GFP fusion stain of B. subtilis 168 was grown in 5 ml 2×TY medium with 35 mg/L chloramphenicol for 14 hours at 30° C. An overnight culture was then diluted to an OD600 of 0.01 by 2×TY medium containing the absence (DMSO) and presence of 6 μM test compounds and 40 μM of IPTG, it grew at 30° C. after 4 hours of incubation; the cells were pelleted and re-suspended in 300 μL PBS buffer containing 1% agarose. 10 μL suspensions were then placed on the microscopic slide. The morphology of bacterial cell was observed under a fluorescent and phase-contrast microscope at 40× magnification, using the software of Olympus FSX100® Bio Imaging Navigator to capture images.
# S. aureus FtsZ = target: T1, S. aureus FtsZ (Staphylococcus aureus, UniProt P0A031); assay: FtsZ polymerization light scattering assay; assay type: biochemical; details: 30 μm of compound; FtsZ 12.5 μM, 1 mM GTP
# T1 construct: 6-histidine tag; made in house; host or cells: E. coli BL21(DE3)
# T1 sequence (P0A031 1-390): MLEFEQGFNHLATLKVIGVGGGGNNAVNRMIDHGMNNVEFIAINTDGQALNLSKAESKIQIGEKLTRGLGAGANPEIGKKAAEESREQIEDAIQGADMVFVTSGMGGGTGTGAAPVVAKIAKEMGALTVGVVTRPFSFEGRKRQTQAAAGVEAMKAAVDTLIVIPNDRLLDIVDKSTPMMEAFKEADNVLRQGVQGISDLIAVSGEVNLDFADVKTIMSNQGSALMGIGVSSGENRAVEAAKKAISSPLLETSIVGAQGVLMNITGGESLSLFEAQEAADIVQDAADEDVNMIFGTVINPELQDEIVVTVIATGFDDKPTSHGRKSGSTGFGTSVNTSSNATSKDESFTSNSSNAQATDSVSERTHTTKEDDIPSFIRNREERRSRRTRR
# Description: Procedure for expression and purification of S. aureus FtsZ protein: S. aureus FtsZ protein was prepared as previous reported.^16a In brief, E. coli BL21(DE3) cells, transformed with a pRSET-A-S vector carrying S. aureus FtsZ with a 6-histidine tag attached, were streaked on a nutrient agar plate containing 50 μg/mL ampicillin. After overnight incubation at 37° C., a single colony was inoculated into 5 mL of Luria-Bertani (LB) medium in the presence of 50 μg/mL ampicillin, which was then incubated at 37° C., with shaking at 250 rpm for 16 h. The overnight culture was transferred into a fresh 2×TY medium in a dilution ratio of 1:100 and 50 μg/mL ampicillin was then added, followed by incubation at 37° C. with shaking at 250 rpm. When OD600 reached 0.8, protein expression was induced with 0.4 mM isopropyl-β-D-thiogalactopyranoside (IPTG) for 4 h. […]
# Procedure: The polymerization of recombinant S. aureus FtsZ was measured using a 90° light scattering in a thermostatically (37° C.) controlled Fluorescence Spectrometer LS 50B according to previous reports.^16a,19 Both excitation and emission wavelengths were fixed to 600 nm with a slit width of 2.5 nm. […] After 8 min, the final concentration of 1 mM GTP was added at the last fraction and the increase in light scattering measured for an additional 2000 seconds. The rate and extent of polymerization were measured. […]
# B. subtilis 168 = assay: MIC against B. subtilis 168; assay type: cell-based; details: Bacillus subtilis
# [2] = system: S. aureus ATCC 29247 (ampicillin resistant strain); assay: MIC against clinically isolated strain 1; assay type: cell-based; details: Staphylococcus aureus, ATCC29247
# Description: (§1) Procedure of Antimicrobial susceptibility test: The MIC value of compounds was measured in the antimicrobial susceptibility test using the broth microdilution procedure in accordance with the CLSI guidelines.^21 Cation-adjusted Mueller Hinton broth (CA-MHB) was used for all the S. aureus strains in the assay. Cells in exponential phase of growth were diluted to approximately 5×10^5 cfu/mL. Stock solutions of each compound were freshly dissolved in dimethyl sulfoxide (DMSO). Then, serial dilutions of each compound in CA-MHB medium were added into 96-well microplate. The final percentage of DMSO in the assay was 1%. Control experiments were performed with 1% DMSO instead of the compound solution. After being incubated at 37° C. for 18 h, OD600 value of cells was measured on a microplate reader and the percentage of bacterial cell inhibition with respect to controls was calculated. The MIC value was defined as the lowest compound concentration at which the growth of bacteria was inhibited by ≥90%. Three independent assays were performed for each compound.
# (§2) Results: Three compounds, namely 14av_amine16, 14dv_amine16 and 14dv_amine06, were selected to be tested against nine in-house clinically isolated bacterial strains including S. aureus ATCC29247, which is an ampicillin resistant strain, S. aureus ATCC BAA-41, ATCC BAA-1717, ATCC BAA-1720, ATCC 43300 which are methicillin resistant strains and four USA300 strains, (#417, #757, #1799 and #2690), which are the predominant strain type of community-associated MRSA strains in the United States.
# [3] = system: USA300 #1799 (community-associated MRSA); assay: MIC against clinically isolated strain 8; assay type: cell-based, S. aureus; details: Staphylococcus aureus
# Description: as §1, §2
# [4] = system: S. aureus ATCC BAA-41 (methicillin resistant); assay: MIC against clinically isolated strain 4; assay type: cell-based; details: Staphylococcus aureus, ATCCBAA41
# Description: as §1, §2
compound,measurement,setting,value
"CCC(CC)c1cc(CCN2CCCN(Cc3ccc(C(F)(F)F)cc3)CC2)nc(-c2ccncc2)n1 [Compound 14av_amine16, 1-(2-(6-(pentan-3-yl)-2-(pyridin-4-yl)pyrimidin-4-yl)ethyl)-4-(4-(trifluoromethyl)benzyl)-1,4-diazepane]",Z-ring localization,[1],obvious mislocalization of the Z-ring
same,inhibition of FtsZ polymerization,S. aureus FtsZ,Complete inhibition
same,MIC,B. subtilis 168,12 µM
same,MIC,[2],8 µM
same,MIC,[3],12 µM
same,MIC,[4],12 µM
